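Dose response: 5 concentrations. Exposure: 48 h. Format: 96-well plates. Endpoint: linear interpolation; highest concentration if not reached. The concentration for full growth arrest is given as TGI.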
What was measured:
Test in all cases: NCI tumour cell line growth inhibition, 48 h
A549 NSCLC = tested on: A549 NSCLC
OVCAR-8 ovarian = tested on: OVCAR-8 ovarian
HCT-15 colon = tested on: HCT-15 colon
RXF 393 renal = tested on: RXF 393 renal
MOLT-4 leukemia = tested on: MOLT-4 leukemia
SF-295 CNS = tested on: SF-295 CNS
786-0 renal = tested on: 786-0 renal
HCC-2998 colon = tested on: HCC-2998 colon
DLD-1 colon = tested on: DLD-1 colon
LOX IMVI melanoma = tested on: LOX IMVI melanoma
EKVX NSCLC = tested on: EKVX NSCLC
DMS 273 small cell lung = tested on: DMS 273 small cell lung
HOP-18 NSCLC = tested on: HOP-18 NSCLC
K-562 leukemia = tested on: K-562 leukemia
UO-31 renal = tested on: UO-31 renal
NCI-H226 lung = tested on: NCI-H226 lung
MALME-3M melanoma = tested on: MALME-3M melanoma
SW-620 colon = tested on: SW-620 colon
SK-MEL-28 melanoma = tested on: SK-MEL-28 melanoma
TK-10 renal = tested on: TK-10 renal
A498 renal = tested on: A498 renal
HOP-62 NSCLC = tested on: HOP-62 NSCLC
SNB-78 CNS = tested on: SNB-78 CNS
CAKI-1 renal = tested on: CAKI-1 renal
UACC-62 melanoma = tested on: UACC-62 melanoma
M14 melanoma = tested on: M14 melanoma
SN12C renal = tested on: SN12C renal
SK-MEL-5 melanoma = tested on: SK-MEL-5 melanoma
UACC-257 melanoma = tested on: UACC-257 melanoma
OVCAR-5 ovarian = tested on: OVCAR-5 ovarian
COLO 205 colon = tested on: COLO 205 colon
SF-539 CNS = tested on: SF-539 CNS
SK-MEL-2 melanoma = tested on: SK-MEL-2 melanoma
HL-60(TB) leukemia = tested on: HL-60(TB) leukemia
KM12 colon = tested on: KM12 colon
DMS 114 small cell lung = tested on: DMS 114 small cell lung
LXFL 529 NSCLC = tested on: LXFL 529 NSCLC
HT29 colon = tested on: HT29 colon
NCI-H23 lung = tested on: NCI-H23 lung
U251 CNS = tested on: U251 CNS
XF 498 CNS = tested on: XF 498 CNS
CCRF-CEM leukemia = tested on: CCRF-CEM leukemia
RXF-631 renal = tested on: RXF-631 renal
M19-MEL melanoma = tested on: M19-MEL melanoma
OVCAR-4 ovarian = tested on: OVCAR-4 ovarian
IGROV1 ovarian = tested on: IGROV1 ovarian
SF-268 CNS = tested on: SF-268 CNS
SNB-19 CNS = tested on: SNB-19 CNS
SK-OV-3 ovarian = tested on: SK-OV-3 ovarian
RPMI-8226 leukemia = tested on: RPMI-8226 leukemia
ACHN renal = tested on: ACHN renal
OVCAR-3 ovarian = tested on: OVCAR-3 ovarian
SNB-75 CNS = tested on: SNB-75 CNS
NCI-H522 lung = tested on: NCI-H522 lung
HOP-92 NSCLC = tested on: HOP-92 NSCLC
KM20L2 colon = tested on: KM20L2 colon
NCI-H460 lung = tested on: NCI-H460 lung
SR leukemia = tested on: SR leukemia
HCT-116 colon = tested on: HCT-116 colon

## CN(C)/C(=N/C(=S)Nc1ccccc1)SCc1ccccc1
A549 NSCLC
  TGI: > 100 µM
OVCAR-8 ovarian
  TGI: > 100 µM
HCT-15 colon
  TGI: > 100 µM
RXF 393 renal
  TGI: > 100 µM
MOLT-4 leukemia
  TGI: > 100 µM
SF-295 CNS
  TGI: > 100 µM
786-0 renal
  TGI: > 100 µM
HCC-2998 colon
  TGI: > 100 µM
DLD-1 colon
  TGI: > 100 µM
LOX IMVI melanoma
  TGI: > 100 µM
EKVX NSCLC
  TGI: > 100 µM
DMS 273 small cell lung
  TGI: > 100 µM
HOP-18 NSCLC
  TGI: > 100 µM
K-562 leukemia
  TGI: > 100 µM
UO-31 renal
  TGI: 95.8 µM
NCI-H226 lung
  TGI: > 100 µM
MALME-3M melanoma
  TGI: > 100 µM
SW-620 colon
  TGI: > 100 µM
SK-MEL-28 melanoma
  TGI: > 100 µM
TK-10 renal
  TGI: > 100 µM
A498 renal
  TGI: > 100 µM
HOP-62 NSCLC
  TGI: > 100 µM
SNB-78 CNS
  TGI: > 100 µM
CAKI-1 renal
  TGI: > 100 µM
UACC-62 melanoma
  TGI: > 100 µM
M14 melanoma
  TGI: > 100 µM
SN12C renal
  TGI: > 100 µM
SK-MEL-5 melanoma
  TGI: > 100 µM
UACC-257 melanoma
  TGI: > 100 µM
OVCAR-5 ovarian
  TGI: > 100 µM
COLO 205 colon
  TGI: > 100 µM
SF-539 CNS
  TGI: > 100 µM
SK-MEL-2 melanoma
  TGI: > 100 µM
HL-60(TB) leukemia
  TGI: 51.4 µM
KM12 colon
  TGI: > 100 µM
DMS 114 small cell lung
  TGI: > 100 µM
LXFL 529 NSCLC
  TGI: > 100 µM
HT29 colon
  TGI: > 100 µM
NCI-H23 lung
  TGI: > 100 µM
U251 CNS
  TGI: > 100 µM
XF 498 CNS
  TGI: > 100 µM
CCRF-CEM leukemia
  TGI: > 100 µM
RXF-631 renal
  TGI: > 100 µM
M19-MEL melanoma
  TGI: > 100 µM
OVCAR-4 ovarian
  TGI: > 100 µM
IGROV1 ovarian
  TGI: > 100 µM
SF-268 CNS
  TGI: > 100 µM
SNB-19 CNS
  TGI: > 100 µM
SK-OV-3 ovarian
  TGI: > 100 µM
RPMI-8226 leukemia
  TGI: > 100 µM
ACHN renal
  TGI: > 100 µM
OVCAR-3 ovarian
  TGI: > 100 µM
SNB-75 CNS
  TGI: > 100 µM
NCI-H522 lung
  TGI: > 100 µM

## O=C1O[C@@H](c2ccccc2)C[C@@H]1CN1CCOCC1
A549 NSCLC
  TGI: > 100 µM
OVCAR-8 ovarian
  TGI: > 100 µM
HCT-15 colon
  TGI: > 100 µM
RXF 393 renal
  TGI: > 100 µM
MOLT-4 leukemia
  TGI: > 100 µM
HOP-92 NSCLC
  TGI: > 100 µM
SF-295 CNS
  TGI: > 100 µM
786-0 renal
  TGI: > 100 µM
HCC-2998 colon
  TGI: > 100 µM
DLD-1 colon
  TGI: > 100 µM
LOX IMVI melanoma
  TGI: > 100 µM
EKVX NSCLC
  TGI: > 100 µM
K-562 leukemia
  TGI: > 100 µM
UO-31 renal
  TGI: > 100 µM
NCI-H226 lung
  TGI: > 100 µM
MALME-3M melanoma
  TGI: > 100 µM
SW-620 colon
  TGI: > 100 µM
SK-MEL-28 melanoma
  TGI: > 100 µM
TK-10 renal
  TGI: > 100 µM
A498 renal
  TGI: > 100 µM
HOP-62 NSCLC
  TGI: > 100 µM
SNB-78 CNS
  TGI: > 100 µM
CAKI-1 renal
  TGI: > 100 µM
UACC-62 melanoma
  TGI: > 100 µM
M14 melanoma
  TGI: > 100 µM
SN12C renal
  TGI: > 100 µM
SK-MEL-5 melanoma
  TGI: > 100 µM
UACC-257 melanoma
  TGI: > 100 µM
OVCAR-5 ovarian
  TGI: > 100 µM
COLO 205 colon
  TGI: > 100 µM
SF-539 CNS
  TGI: > 100 µM
SK-MEL-2 melanoma
  TGI: > 100 µM
HL-60(TB) leukemia
  TGI: > 100 µM
KM12 colon
  TGI: > 100 µM
DMS 114 small cell lung
  TGI: > 100 µM
LXFL 529 NSCLC
  TGI: > 100 µM
HT29 colon
  TGI: > 100 µM
NCI-H23 lung
  TGI: 64.1 µM
KM20L2 colon
  TGI: > 100 µM
U251 CNS
  TGI: > 100 µM
XF 498 CNS
  TGI: > 100 µM
CCRF-CEM leukemia
  TGI: > 100 µM
RXF-631 renal
  TGI: > 100 µM
OVCAR-4 ovarian
  TGI: > 100 µM
IGROV1 ovarian
  TGI: > 100 µM
SF-268 CNS
  TGI: > 100 µM
SK-OV-3 ovarian
  TGI: > 100 µM
RPMI-8226 leukemia
  TGI: > 100 µM
NCI-H460 lung
  TGI: > 100 µM
ACHN renal
  TGI: > 100 µM
OVCAR-3 ovarian
  TGI: > 100 µM
SNB-75 CNS
  TGI: > 100 µM
NCI-H522 lung
  TGI: > 100 µM

## CCSc1nnc(CSc2nc(-c3ccccc3)c(-c3ccccc3)[nH]2)n1-c1ccccc1
A549 NSCLC
  TGI: 80.9 µM
OVCAR-8 ovarian
  TGI: 51.9 µM
SR leukemia
  TGI: 48.5 µM
HCT-15 colon
  TGI: 36 µM
RXF 393 renal
  TGI: 43.5 µM
MOLT-4 leukemia
  TGI: 40 µM
HOP-92 NSCLC
  TGI: 38.5 µM
SF-295 CNS
  TGI: 44.7 µM
786-0 renal
  TGI: 45.7 µM
HCC-2998 colon
  TGI: 36.5 µM
DLD-1 colon
  TGI: 37 µM
LOX IMVI melanoma
  TGI: 43.8 µM
EKVX NSCLC
  TGI: 63.5 µM
DMS 273 small cell lung
  TGI: 66.3 µM
HOP-18 NSCLC
  TGI: 30.4 µM
K-562 leukemia
  TGI: 56.3 µM
UO-31 renal
  TGI: 33 µM
NCI-H226 lung
  TGI: 27.7 µM
MALME-3M melanoma
  TGI: 44.2 µM
SW-620 colon
  TGI: 30.2 µM
SK-MEL-28 melanoma
  TGI: 37 µM
TK-10 renal
  TGI: 57.1 µM
A498 renal
  TGI: 34.6 µM
HOP-62 NSCLC
  TGI: 35.2 µM
SNB-78 CNS
  TGI: > 100 µM
CAKI-1 renal
  TGI: 63.7 µM
UACC-62 melanoma
  TGI: 30.2 µM
M14 melanoma
  TGI: 34.9 µM
SN12C renal
  TGI: 29.7 µM
SK-MEL-5 melanoma
  TGI: 30.9 µM
UACC-257 melanoma
  TGI: 33.6 µM
OVCAR-5 ovarian
  TGI: 30.4 µM
COLO 205 colon
  TGI: 29.5 µM
HCT-116 colon
  TGI: 36.2 µM
SK-MEL-2 melanoma
  TGI: 45.6 µM
HL-60(TB) leukemia
  TGI: 45.5 µM
KM12 colon
  TGI: 32.1 µM
DMS 114 small cell lung
  TGI: 39.1 µM
LXFL 529 NSCLC
  TGI: 67 µM
HT29 colon
  TGI: 35.4 µM
NCI-H23 lung
  TGI: 40.8 µM
KM20L2 colon
  TGI: 32.1 µM
U251 CNS
  TGI: 31.7 µM
XF 498 CNS
  TGI: 35.3 µM
CCRF-CEM leukemia
  TGI: 49.4 µM
RXF-631 renal
  TGI: 63.3 µM
M19-MEL melanoma
  TGI: 33.3 µM
IGROV1 ovarian
  TGI: 42.3 µM
SF-268 CNS
  TGI: 43.3 µM
SNB-19 CNS
  TGI: 34.2 µM
SK-OV-3 ovarian
  TGI: 60.8 µM
RPMI-8226 leukemia
  TGI: 46.1 µM
NCI-H460 lung
  TGI: 36.9 µM
ACHN renal
  TGI: 33.4 µM
OVCAR-3 ovarian
  TGI: 35.2 µM
SNB-75 CNS
  TGI: 42.9 µM
NCI-H522 lung
  TGI: 30.5 µM

Source: PubChem BioAssay (NCI)
